{"source": "patent US20080306038A1", "about": "“Compositions and Methods for Modulating Inflammation Using Fluoroquinolones” (priority 2007, published 2008)", "type_in_all_cases": "cell-based, human", "key": {"VEGF": {"tested_on": "VEGF", "assay": "LPS-stimulated VEGF production in THP-1 monocytes (multiplex Luminex)", "set-up": "key to Inhibition of LPS-stimulated VEGF production: “X” signifies significant inhibition at a particular concentration", "conditions": "30 μg/mL compound + 10 μg/mL LPS, 18 hours, THP-1 monocytes", "experimental": "(§1) Human THP-1 monocytes (ATCC TIB 202) were purchased from American Type Culture Collection (Manassas, Va.) and maintained in RPMI 1640 medium (Invitrogen, Carlsbad, Calif.) supplemented with 10% fetal bovine serum (“FBS”, Invitrogen, Carlsbad, Calif.), 100 U/mL of penicillin (Invitrogen, Carlsbad, Calif.), and 100 μg/mL of streptomycin (Invitrogen, Carlsbad, Calif.) at 37° C. in a humidified incubator with 5% CO2. THP-1 cells were pre-cultured in RPMI 1640 medium containing 10% dialyzed serum for 24 h. […] Each treatment was performed in triplicate.\n(§2) Samples were analyzed using multiplex bead technology, which utilizes microspheres as the solid support for immunoassays and allows the analysis of all cytokines from each sample (D. A. Vignali, J. Immunol. Methods, Vol. 243, 243-255 (2000)). Sixteen cytokines were measured according to the manufacturer's instructions. Briefly, 50 μL of medium samples were incubated with antibody-coated capture beads overnight at 4° C. Washed beads were further incubated with biotin-labelled anti-human cytokine antibodies for 2 h at room temperature followed by incubation with streptavidin-phycoerythrin for 30 min. Samples were analyzed using Luminex 200™ (Luminex, Austin, Tex.) and Beadview software v1.0 (Upstate Cell Signaling Solutions, Temecula, Calif.). Standard curves of known concentrations of recombinant human cytokines were used to convert fluorescence units (median fluorescence intensity) to cytokine concentration in pg/mL. Only the linear portions of the standard curves were used to quantify cytokine concentrations, and in instances where the fluorescence reading exceeded the linear range of the standard curve, an appropriate dilution was performed to ensure that the concentration was in the linear portion of the curve.\n(§3) All cytokine concentrations (pg/mL) were expressed as mean ±standard deviation. Statistical analysis comparing effects of treatment across groups was performed using a one-way ANOVA with a Dunnett's post-hoc comparison test using either vehicle control or LPS treatment as references. For all assays, p≦0.05 was predetermined as the criterion of statistical significance."}, "IL-12p40": {"tested_on": "IL-12p40", "assay": "LPS-stimulated IL-12p40 production in THP-1 monocytes (multiplex Luminex)", "set-up": "key to Inhibition of LPS-stimulated IL-12p40 production: “X” signifies significant inhibition at a particular concentration", "conditions": "18 hours", "experimental": "as §1, §2, §3"}, "IL-1ra": {"tested_on": "IL-1ra", "assay": "LPS-stimulated IL-1ra production in THP-1 monocytes (multiplex Luminex)", "set-up": "key to Inhibition of LPS-stimulated IL-1ra production: “X” signifies significant inhibition at a particular concentration", "conditions": "18 hours, THP-1 monocytes", "experimental": "as §1, §2, §3"}, "IL-1α": {"tested_on": "IL-1α", "assay": "LPS-stimulated IL-1α production in THP-1 monocytes (multiplex Luminex)", "set-up": "key to Inhibition of LPS-stimulated IL-1α production: “X” signifies significant inhibition at a particular concentration", "conditions": "18 hours, THP-1 monocytes", "experimental": "as §1, §2, §3"}, "IL-8": {"tested_on": "IL-8", "assay": "LPS-stimulated IL-8 production in THP-1 monocytes (multiplex Luminex)", "set-up": "key to Inhibition of LPS-stimulated IL-8 production: “X” signifies significant inhibition at a particular concentration", "conditions": "18 hours, THP-1 monocytes", "experimental": "as §1, §2, §3"}, "IL-1β": {"tested_on": "IL-1β", "assay": "LPS-stimulated IL-1β production in THP-1 monocytes (multiplex Luminex)", "set-up": "key to Inhibition of LPS-stimulated IL-1β production: “X” signifies significant inhibition at a particular concentration", "conditions": "18 hours, THP-1 monocytes", "experimental": "as §1, §2, §3"}, "IP-10": {"tested_on": "IP-10", "assay": "LPS-stimulated IP-10 production in THP-1 monocytes (multiplex Luminex)", "set-up": "key to Inhibition of LPS-stimulated IP-10 production: “X” signifies significant inhibition at a particular concentration", "conditions": "18 hours, THP-1 monocytes", "experimental": "as §1, §2, §3"}, "IL-6": {"tested_on": "IL-6", "assay": "LPS-stimulated IL-6 production in THP-1 monocytes (multiplex Luminex)", "set-up": "key to Inhibition of LPS-stimulated IL-6 production: “X” signifies significant inhibition at a particular concentration", "conditions": "18 hours, THP-1 monocytes", "experimental": "as §1, §2, §3"}, "MIP-1α": {"tested_on": "MIP-1α", "assay": "LPS-stimulated MIP-1α production in THP-1 monocytes (multiplex Luminex)", "set-up": "key to Inhibition of LPS-stimulated MIP-1α production: “X” signifies significant inhibition at a particular concentration", "conditions": "18 hours, THP-1 monocytes", "experimental": "as §1, §2, §3"}, "[1]": {"conditions": "10 μg/mL compound + 10 μg/mL LPS"}, "[2]": {"conditions": "30 μg/mL compound + 10 μg/mL LPS"}}}
{"smiles": "COc1c(N2C[C@@H]3CCCN[C@@H]3C2)c(F)cc2c(=O)c(C(=O)O)cn(C3CC3)c12", "note": "[Moxifloxacin, moxifloxacin, reference compound]", "values": [{"measurement": "Inhibition of LPS-stimulated VEGF production", "setting": "VEGF", "result": "X"}, {"measurement": "Inhibition of LPS-stimulated IL-12p40 production", "setting": "IL-12p40; 1 μg/mL compound + 10 μg/mL LPS", "result": "X"}, {"measurement": "Inhibition of LPS-stimulated IL-12p40 production", "setting": "IL-12p40; [1]", "result": "X"}, {"measurement": "Inhibition of LPS-stimulated IL-12p40 production", "setting": "IL-12p40; [2]", "result": "X"}, {"measurement": "Concentration at which a significant inhibitory effect was observed for IL-12p40", "setting": "IL-12p40; LPS-induced", "result": 1, "unit": "µg/mL"}, {"measurement": "Inhibition of LPS-stimulated IL-1ra production", "setting": "IL-1ra; [1]", "result": "X"}, {"measurement": "Inhibition of LPS-stimulated IL-1ra production", "setting": "IL-1ra; [2]", "result": "X"}, {"measurement": "Concentration at which a significant inhibitory effect was observed for IL-1ra", "setting": "IL-1ra; LPS-induced", "result": 10, "unit": "µg/mL"}, {"measurement": "Inhibition of LPS-stimulated IL-1α production", "setting": "IL-1α; [2]", "result": "X"}, {"measurement": "Concentration at which a significant inhibitory effect was observed for IL-1α", "setting": "IL-1α; LPS-induced", "result": 30, "unit": "µg/mL"}, {"measurement": "Inhibition of LPS-stimulated IL-8 production", "setting": "IL-8; [2]", "result": "X"}, {"measurement": "Concentration at which a significant inhibitory effect was observed for IL-8", "setting": "IL-8; LPS-induced", "result": 30, "unit": "µg/mL"}, {"measurement": "Inhibition of LPS-stimulated IL-1β production", "setting": "IL-1β; [2]", "result": "X"}, {"measurement": "Concentration at which a significant inhibitory effect was observed for IL-1β", "setting": "IL-1β; LPS-induced", "result": 30, "unit": "µg/mL"}, {"measurement": "Inhibition of LPS-stimulated IP-10 production", "setting": "IP-10; [2]", "result": "X"}, {"measurement": "Concentration at which a significant inhibitory effect was observed for IP-10", "setting": "IP-10; LPS-induced", "result": 30, "unit": "µg/mL"}, {"measurement": "Inhibition of LPS-stimulated IL-6 production", "setting": "IL-6; [1]", "result": "X"}, {"measurement": "Concentration at which a significant inhibitory effect was observed for IL-6", "setting": "IL-6; LPS-induced", "result": 10, "unit": "µg/mL"}, {"measurement": "Inhibition of LPS-stimulated MIP-1α production", "setting": "MIP-1α; [2]", "result": "X"}, {"measurement": "Concentration at which a significant inhibitory effect was observed for MIP-1α", "setting": "MIP-1α; LPS-induced", "result": 30, "unit": "µg/mL"}]}
